Starred links: 1 amine or outer side, 2 acyl side, 3 side chain; linkers in the order of their positions; H or OH if unused. Non-standard residues stand in square brackets, D forms with d. Residues, ends and D or L forms follow the SMILES beside them. *: point of attachment. d(γGlu) = O=C(O)[C@@H](CCC(=O)[*:2])N[*:1]; Oic = O=C(O)[C@@H]1C[C@@H]2CCCC[C@@H]2N1; Nicotinoyl = O=C(c1cccnc1)*; Orn = NCCC[C@H](N)C(=O)O; Cbz = O=C(OCc1ccccc1)*; Bz = O=C(c1ccccc1)*

In the assay the target is T1, ACE preparation (rabbit lung) (Oryctolagus cuniculus, UniProt P12822).
T1 construct: an ACE preparation (rabbit lung); from tissue; host or cells: rabbit lung
T1 sequence (P12822 34-1310): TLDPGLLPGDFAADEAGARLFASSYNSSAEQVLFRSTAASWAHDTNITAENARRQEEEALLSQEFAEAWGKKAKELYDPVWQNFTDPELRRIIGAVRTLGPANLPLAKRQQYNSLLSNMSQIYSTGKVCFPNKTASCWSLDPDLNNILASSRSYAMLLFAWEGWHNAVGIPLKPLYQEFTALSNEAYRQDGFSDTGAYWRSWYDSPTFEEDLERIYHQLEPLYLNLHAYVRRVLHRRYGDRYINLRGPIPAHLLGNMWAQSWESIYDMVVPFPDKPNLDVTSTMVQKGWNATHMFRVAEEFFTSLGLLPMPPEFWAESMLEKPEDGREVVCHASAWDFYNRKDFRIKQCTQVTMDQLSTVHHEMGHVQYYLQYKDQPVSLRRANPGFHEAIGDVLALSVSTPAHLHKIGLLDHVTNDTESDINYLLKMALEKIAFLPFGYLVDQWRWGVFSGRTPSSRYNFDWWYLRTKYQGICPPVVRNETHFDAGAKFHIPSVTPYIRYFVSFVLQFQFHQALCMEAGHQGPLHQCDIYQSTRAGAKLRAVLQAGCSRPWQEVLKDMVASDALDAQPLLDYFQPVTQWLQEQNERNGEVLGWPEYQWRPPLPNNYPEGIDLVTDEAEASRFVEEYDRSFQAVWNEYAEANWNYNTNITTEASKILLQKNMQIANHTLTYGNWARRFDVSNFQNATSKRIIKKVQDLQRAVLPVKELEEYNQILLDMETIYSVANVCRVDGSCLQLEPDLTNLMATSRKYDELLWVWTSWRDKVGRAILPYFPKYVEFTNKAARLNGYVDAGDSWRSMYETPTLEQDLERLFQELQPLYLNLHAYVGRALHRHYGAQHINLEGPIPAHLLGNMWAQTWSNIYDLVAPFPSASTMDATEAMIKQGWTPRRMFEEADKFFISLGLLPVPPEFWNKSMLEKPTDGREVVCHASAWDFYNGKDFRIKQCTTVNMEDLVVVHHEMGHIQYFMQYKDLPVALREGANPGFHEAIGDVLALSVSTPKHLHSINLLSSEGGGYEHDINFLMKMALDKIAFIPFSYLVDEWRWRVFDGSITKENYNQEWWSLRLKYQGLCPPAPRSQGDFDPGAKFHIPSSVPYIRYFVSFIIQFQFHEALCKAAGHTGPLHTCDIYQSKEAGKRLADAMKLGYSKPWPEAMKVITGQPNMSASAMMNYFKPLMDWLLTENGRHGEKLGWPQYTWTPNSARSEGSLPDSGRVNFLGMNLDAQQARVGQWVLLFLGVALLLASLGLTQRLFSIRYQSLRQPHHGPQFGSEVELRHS
Kind of assay: In vitro ACE inhibitory activity (hippuryl-L-histidyl-L-leucine substrate). It counts as biochemical. Particulars: 37° C., 30 minutes, pH 8.3. The method, then: The assay medium contained an ACE preparation (rabbit lung), synthetic substrate (hippuryl-L-histidyl-L-leucine 5 mM), NaCl (300 mM) and phosphate buffer (100 mM, pH 8.3). It was mixed to a final volume of 0.300 ml and incubated at 37° C. for 30 minutes in the presence or absence of test compounds. After the reaction was terminated by adding 300 μl of 1N HCl, hippuric acid formed was extracted with 2 volume of ethyl acetate. After ethyl acetate was evaporated and distilled water was added, the hippuric acid was determined from its absorbance at 228 nm by spectrophotometer (Hitachi 100-41).
The degree of ACE inhibition was calculated from activities with and without test compounds. The IC50 value (molar concentration required for the 50% inhibition of ACE activity) was obtained from a dose-inhibition curve.
A word on the IC50: it is the concentration at which inhibition is half-maximal. High values mean weaker potency, low ones greater potency. Turning to `NCCCC[C@H](NC(=O)c1ccco1)C(=O)N[C@H](CCC(=O)N1c2ccccc2C[C@H]1C(=O)O)C(=O)O` [Example 8, 1-[N^2-(2-Furoyl)-L-lysyl-gamma-D-glutamyl]indoline-2(S)-carboxylic acid], the IC50 is 23 nM.
With `NCCCC[C@H](NC(=O)c1ccc(Cl)cc1)C(=O)N[C@H](CCC(=O)N1[C@H](C(=O)O)C[C@@H]2CCCC[C@@H]21)C(=O)O` [Example 55, (2S,3aS,7aS)-1-[N^2-(4-Chlorobenzoyl)-L-lysyl-gamma-D-glutamyl]octahydro-1H-indole-2-carboxylic acid] the figure was 6.2 nM.
With `NCCCC[C@H](NC(=O)c1ccccn1)C(=O)N[C@H](CCC(=O)N1[C@H](C(=O)O)C[C@@H]2CCCC[C@@H]21)C(=O)O` [Example 20, (2S,3aS,7aS)-1-[N^2-(Pyridine-2-carbonyl)-L-lysyl-gamma-D-glutamyl]octahydro-1H-indole-2-carboxylic acid] the figure was 6.8 nM; with `NCCCC[C@H](NC(=O)[C@H]1CCCN1)C(=O)N[C@H](CCC(=O)N1c2ccccc2C[C@H]1C(=O)O)C(=O)O` [Example 17, 1-(D-Prolyl-L-lysyl-gamma-D-glutamyl)indoline-2(S)-carboxylic acid], 21 nM.
With `NCCCC[C@H](NC(=O)[C@@H]1CCCN1)C(=O)N[C@H](CCC(=O)N1c2ccccc2C[C@H]1C(=O)O)C(=O)O` [Example 9, 1-(L-prolyl-L-lysyl-gamma-D-glutamyl)indoline-2(S)-carboxylic acid] the figure was 36 nM; with `NCCCC[C@H](NC(=O)C1CCCCC1)C(=O)N[C@H](CCC(=O)N1c2ccccc2C[C@H]1C(=O)O)C(=O)O` [Example 71, 1-(N^2 -Cyclohexylcarbonyl-L-lysyl-gamma-D-glutamyl)indoline-2(S)-carboxylic acid], 27 nM.
`NCCCC[C@H](NC(=O)c1cccnc1)C(=O)N[C@H](CCC(=O)N1[C@H](C(=O)O)C[C@@H]2CCCC[C@@H]21)C(=O)O` [Example 69, Monosodium (2S,3aS,7aS)-1-(N^2-nicotinoyl-L-lysyl-gamma-D-glutamyl)octahydro-1H-indole-2-carboxylate] (Nicotinoyl-Lys-[d(γGlu)]-[Oic]-OH): half-maximal inhibition (IC50) required 7.8 nM.
With `NCCCC[C@H](NC(=O)OC1CCCCC1)C(=O)N[C@H](CCC(=O)N1c2ccccc2C[C@H]1C(=O)O)C(=O)O` [Example 4, 1-(N^2 -Cyclohexyloxycarbonyl-L-lysyl-gamma-D-glutamyl)indoline-2(S)-carboxylic acid] the figure was 8.4 nM; with `NCCCC[C@H](NC(=O)OC1CCC1)C(=O)N[C@H](CCC(=O)N1c2ccccc2C[C@H]1C(=O)O)C(=O)O` [Example 33, 1-(N^2 -Cyclobutyloxycarbonyl-L-lysyl-gamma-D-glutamyl)indoline-2(S)-carboxylic acid], 14 nM.
With `NCCCC[C@H](NC(=O)OC1CCCC1)C(=O)N[C@H](CCC(=O)N1c2ccccc2C[C@H]1C(=O)O)C(=O)O` [Example 37, 1-(N^2 -Cyclopentyloxycarbonyl-L-lysyl-gamma-D-glutamyl)indoline-2(S)-carboxylic acid] the figure was 5.1 nM; with `NCCCC[C@H](NC(=O)OCc1ccccc1)C(=O)N[C@H](CCC(=O)N1c2ccccc2C[C@H]1C(=O)O)C(=O)O` [Example 1, 1-(N^2 -Benzyloxycarbonyl-L-lysyl-gamma-D-glutamyl)indoline-2(S)-carboxylic acid], 5.6 nM.
With `NCCCC[C@H](NC(=O)OCCc1ccccc1)C(=O)N[C@H](CCC(=O)N1[C@H](C(=O)O)C[C@@H]2CCCC[C@@H]21)C(=O)O` [Example 26, (2S,3aS,7aS)-1-[N^2 -Phenethyloxycarbonyl-L-lysyl-gamma-D-glutamyl]octahydro-1H-indole-2-carboxylic acid] the figure was 4.6 nM; with `COc1ccc(CCOC(=O)N[C@@H](CCCCN)C(=O)N[C@H](CCC(=O)N2c3ccccc3C[C@H]2C(=O)O)C(=O)O)cc1` [Example 28, 1-[N^2-(4-Methoxyphenylethoxycarbonyl)-L-lysyl-gamma-D-glutamyl]indoline-2(S)-carboxylic acid], 11 nM.
`NCCCC[C@H](NC(=O)OCCc1ccccc1)C(=O)N[C@H](CCC(=O)N1c2ccccc2C[C@H]1C(=O)O)C(=O)O` [Example 3, 1-(N^2 -Phenethyloxycarbonyl-L-lysyl-gamma-D-glutamyl)indoline-2(S)-carboxylic acid] returned an IC50 of 13 nM.
With `NCCCC[C@H](NC(=O)C=Cc1c[nH]cn1)C(=O)N[C@H](CCC(=O)N1c2ccccc2C[C@H]1C(=O)O)C(=O)O` [Example 10, 1-{N^2-[3-(4-Imidazolyl)-propenoyl]-L-lysyl-gamma-D-glutamyl}indoline-2(S)-carboxylic acid] the figure was 95 nM.
With `NCCCC[C@H](NC(=O)c1cccnc1)C(=O)N[C@H](CCC(=O)N1c2ccccc2C[C@H]1C(=O)O)C(=O)O` [Example 35, 1-(N^2 -Nicotinoyl-L-lysyl-gamma-D-glutamyl)indoline-2(S)-carboxylic acid] the figure was 11 nM; with `NCCCC[C@H](NC(=O)c1cccnc1Cl)C(=O)N[C@H](CCC(=O)N1[C@H](C(=O)O)C[C@@H]2CCCC[C@@H]21)C(=O)O` [Example 54, (2S,3aS,7aS)-1-[N^2-(2-Chloronicotinoyl)-L-lysyl-gamma-D-glutamyl]octahydro-1H-indole-2-carboxylic acid], 5.9 nM.
Regarding `NCCCC[C@H](NC(=O)c1cnccn1)C(=O)N[C@H](CCC(=O)N1c2ccccc2C[C@H]1C(=O)O)C(=O)O` [Example 68, 1-(N^2 -Pyrazinoyl-L-lysyl-gamma-D-glutamyl)indoline-2(S)-carboxylic acid], the IC50 is 16 nM.
With `NCCCC[C@H](NC(=O)C1CCC1)C(=O)N[C@H](CCC(=O)N1c2ccccc2C[C@H]1C(=O)O)C(=O)O` [Example 36, 1-(N^2 -Cyclobutanecarbonyl-L-lysyl-gamma-D-glutamyl)-indoline-2(S)-carboxylic acid] the figure was 22 nM; with `NCCCC[C@H](NC(=O)c1ccccc1)C(=O)N[C@H](CCC(=O)N1[C@H](C(=O)O)C[C@@H]2CCCC[C@@H]21)C(=O)O` [Example 27, (2S,3aS,7aS)-1-(N^2 -Benzoyl-L-lysyl-gamma-D-glutamyl)octahydro-1H-indole-2-carboxylic acid] (Bz-Lys-[d(γGlu)]-[Oic]-OH), 5.4 nM; with `COc1ccccc1C(=O)N[C@@H](CCCCN)C(=O)N[C@H](CCC(=O)N1[C@H](C(=O)O)C[C@@H]2CCCC[C@@H]21)C(=O)O` [Example 70, (2S,3aS,7aS)-1-[N^2-(2-Methoxybenzoyl)-L-lysyl-gamma-D-glutamyl]octahydro-1H-indole-2-carboxylic acid], 5.4 nM.
The molecule `NCCC[C@H](NC(=O)OCc1ccccc1)C(=O)N[C@H](CCC(=O)N1[C@H](C(=O)O)C[C@@H]2CCCC[C@@H]21)C(=O)O` [Example 14, (2S,3aS,7aS)-1-(N^2 -Benzyloxycarbonyl-L-ornithinyl-gamma-D-glutamyl)octahydro-1H-indole-2-carboxylic acid] (Cbz-[Orn]-[d(γGlu)]-[Oic]-OH) gave an IC50 of 4.9 nM.
With `NCCCC[C@H](NC(=O)OCC1CCCCC1)C(=O)N[C@H](CCC(=O)N1c2ccccc2C[C@H]1C(=O)O)C(=O)O` [Example 16, 1-(N^2 -Cyclohexylmethoxycarbonyl-L-lysyl-gamma-D-glutamyl)indoline-2(S)-carboxylic acid] the figure was 13 nM.
With `NCCCC[C@H](NC(=O)c1cccs1)C(=O)N[C@H](CCC(=O)N1[C@H](C(=O)O)C[C@@H]2CCCC[C@@H]21)C(=O)O` [Example 52, (2S,3aS,7aS)-1-[N^2-(2-Thiophenecarbonyl)-L-lysyl-gamma-D-glutamyl]octahydro-1H-indole-2-carboxylic acid] the figure was 4.5 nM.
